Test results as given in ChEMBL document CHEMBL3872258, “Challenges in the development of an M4 PAM in vivo tool compound: The discovery of VU0467154 and unexpected DMPK profiles of close analogs” (Bioorg Med Chem Lett, 2017).

How the values were obtained:
[1] = biological target: T1, Muscarinic acetylcholine receptor M4 (Homo sapiens) (UniProt P08173); experiment: Positive allosteric modulation of human M4 receptor expressed in CHO cells co-expressing Gqui5 by calcium mobilization assay relative to acetylcholine; format: functional, cell-based
T1 sequence (whole entry): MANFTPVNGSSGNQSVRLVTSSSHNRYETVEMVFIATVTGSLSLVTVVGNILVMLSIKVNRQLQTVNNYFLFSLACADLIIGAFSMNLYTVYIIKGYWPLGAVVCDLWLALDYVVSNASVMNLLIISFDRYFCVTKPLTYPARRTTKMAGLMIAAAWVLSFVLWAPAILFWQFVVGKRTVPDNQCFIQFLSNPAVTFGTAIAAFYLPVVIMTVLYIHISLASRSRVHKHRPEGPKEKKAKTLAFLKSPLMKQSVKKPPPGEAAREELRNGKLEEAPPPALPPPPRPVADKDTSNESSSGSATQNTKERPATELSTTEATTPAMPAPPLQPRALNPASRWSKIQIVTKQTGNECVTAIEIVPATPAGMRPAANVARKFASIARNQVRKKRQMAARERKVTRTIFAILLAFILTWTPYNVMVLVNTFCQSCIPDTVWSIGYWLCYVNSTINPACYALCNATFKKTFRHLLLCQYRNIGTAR

[2] = Ratio of total drug level in brain to plasma in Sprague-Dawley rat at 0.20 to 0.25 mg/kg, iv administered through cassette dosing after 0.25 hrs; format: ADME, organism-based
[3] = biological target: T2, Muscarinic acetylcholine receptor M4 (Rattus norvegicus, UniProt P08485); experiment: Positive allosteric modulation of rat M4 receptor expressed in CHO cells co-expressing Gqui5 by calcium mobilization assay; format: functional, cell-based
T2 sequence (P08485 whole entry): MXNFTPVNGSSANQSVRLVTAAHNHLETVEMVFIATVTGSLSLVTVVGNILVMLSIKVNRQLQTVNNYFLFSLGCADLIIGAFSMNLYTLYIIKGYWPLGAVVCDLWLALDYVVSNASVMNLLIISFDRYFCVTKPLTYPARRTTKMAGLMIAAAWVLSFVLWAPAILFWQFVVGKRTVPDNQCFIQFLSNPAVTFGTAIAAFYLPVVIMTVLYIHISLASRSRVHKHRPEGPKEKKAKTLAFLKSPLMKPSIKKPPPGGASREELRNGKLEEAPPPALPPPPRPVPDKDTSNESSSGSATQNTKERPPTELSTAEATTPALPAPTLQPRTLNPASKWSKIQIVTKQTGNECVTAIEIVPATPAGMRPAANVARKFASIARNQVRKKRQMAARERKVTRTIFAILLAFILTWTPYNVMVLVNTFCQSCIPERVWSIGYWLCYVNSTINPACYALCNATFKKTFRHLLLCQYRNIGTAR

[4] = Ratio of unbound concentration in brain to plasma in Sprague-Dawley rat at 0.20 to 0.25 mg/kg, iv administered through cassette dosing after 0.25 hrs; format: ADME, organism-based
[5] = biological target: T3, Muscarinic acetylcholine receptor M4 (Rattus norvegicus) (UniProt P08485); experiment: Positive allosteric modulation of rat M4 receptor expressed in CHO cells co-expressing Gqui5 by calcium mobilization assay relative to acetylcholine; format: functional, cell-based
T3 sequence (whole entry): T2 sequence (P08485 whole entry)

[6] = biological target: T4, Muscarinic acetylcholine receptor M4 (Homo sapiens, UniProt P08173); experiment: Positive allosteric modulation of human M4 receptor expressed in CHO cells co-expressing Gqui5 by calcium mobilization assay; format: functional, cell-based
T4 sequence (P08173 whole entry): T1 sequence (whole entry)

[7] = biological target: Muscarinic acetylcholine receptor M4 (Homo sapiens) (UniProt P08173); experiment: Positive allosteric modulation of human M4 receptor expressed in CHO cells co-expressing Gqui5 by calcium mobilization assay relative to acetylcholine
[8] = Fraction unbound in rat; format: ADME
[9] = Ratio of total drug level in brain to plasma (unknown origin); format: ADME, cell-free; conditions: brain and plasma
[10] = Fraction unbound in human; format: ADME
[11] = biological target: T1, Muscarinic acetylcholine receptor M4 (Homo sapiens); experiment: Positive allosteric modulation of human M4 receptor relative to acetylcholine
[12] = biological target: T4, Muscarinic acetylcholine receptor M4; experiment: Positive allosteric modulation of human M4 receptor

Compound | Kp [2] | EC50 [3] [µM] | K(p,uu,brain) [4] | Emax [7] [%] | further results
CSc1ccc(CNC(=O)c2sc3nnc(C)c(C)c3c2N)cc1 | 0.13 | 0.0112 | 0.48 |  | Emax [1]: 71.9%; Emax [5]: 75.6%; EC50 ([6]; read-out: EC50): 0.0602 µM
Cc1nnc2sc(C(=O)NCc3ccc([S+](C)[O-])cc3)c(N)c2c1C (stereo not given) |  | 0.139 |  | 74.2 | 
Cc1nnc2sc(C(=O)NCc3cccc(S(C)(=O)=O)c3)c(N)c2c1C |  | 0.417 |  | 74.6 | 
COc1ccc(CNC(=O)c2sc3nc(C)cc(C)c3c2N)cc1 |  |  |  |  | fraction unbound [8]: 0.015; Kp [9]: 0.38; fraction unbound [10]: 0.004
Cc1nnc2sc(C(=O)NCc3ccc(S(=O)(=O)C(F)F)c(F)c3)c(N)c2c1C |  | 0.0234 |  | 76.7 | Kp ([2]; BLD = below limit of detection): Bld; K(p,uu,brain) ([4]; BLD = below limit of detection): Bld
Cc1nnc2sc(C(=O)NCc3ccc(S(=O)(=O)CF)cc3)c(N)c2c1C |  | 0.0219 |  | 62.5 | Emax [1]: 62.5%; Kp ([2]; BLD = below limit of detection): Bld; K(p,uu,brain) ([4]; BLD = below limit of detection): Bld; EC50 ([6]; read-out: pEC50 (converted)): 0.209 µM
Cc1nnc2sc(C(=O)NCc3ccc(S(C)(=O)=O)cc3)c(N)c2c1C | 0.04 | 0.0513 | 0.14 |  | Emax [1]: 73.8%; Emax [5]: 72.6%; EC50 ([6]; read-out: EC50): 0.363 µM
COc1ccc(CNC(=O)c2sc3nnc(C)c(C)c3c2N)cc1 |  |  |  |  | Emax [11]: 83%; fraction unbound [8]: 0.022; Kp [9]: 0.28; fraction unbound [10]: 0.035; EC50 [12]: 0.15 µM
Cc1nnc2sc(C(=O)NCc3ccc(S(=O)(=O)C4CC4)cc3)c(N)c2c1C | 0.05 | 0.0224 | 0.29 | 67.1 | 
Cc1nnc2sc(C(=O)NCc3ccc(S(C)(=O)=O)c(F)c3)c(N)c2c1C | 0.51 | 0.0577 | 2.8 | 69.2 | 
Cc1nnc2sc(C(=O)NCc3ccc(S(=O)(=O)C(C)C)cc3)c(N)c2c1C | 0.07 | 0.0479 | 0.67 | 76.8 | 
Cc1nnc2sc(C(=O)NCc3ccc(S(=O)(=O)C(C)(C)C)cc3)c(N)c2c1C | 0.11 | 0.0447 | 0.34 | 72.1 | 
